{"source": "patent US20120328536A1", "about": "“Taste Improving Substances” (QUEST INTERNATIONAL SERVICES B.V., priority 2006, published 2012)", "key": {"[1]": {"experiment": "Tasting of menthol fondant by a professional panel", "conditions": "50 ppm in fondant with 2500 ppm menthol", "description": "Two samples of fondant were prepared by mixing 65 Fondacreme (ex Belgosuc NV Belgium) with 35% sugar syrup (67° Brix). 2500 Ppm menthol was added as a 50% solution in propylene glycol. To a first sample (sample A), 50 ppm of N-(2-hydroxyethyl) 5-hydroxyhexanoyl amide (as prepared in example 1) was added. The second sample was the reference sample. The Samples were tasted by a professional panel."}, "[2]": {"experiment": "Tasting of NaCl/MSG/pepper oleoresin solution by a professional panel", "conditions": "50 ppm in 0.6% NaCl, 0.03% MSG, 4 ppm pepper oleoresin", "description": "Two solutions of 0.6% NaCl and 0.03% MSG and 4 ppm pepper oleoresin (ex Warner Jenkinson, St Louis, USA) were prepared. To one sample (sample A), 50 ppm of N-(2-hydroxyethyl) 5-hydroxyhexanoyl amide (as prepared in example 1) was added. The other sample was used as the reference. Both samples were tasted by a professional panel."}, "[3]": {"experiment": "Tasting of 3% alcohol in water by a professional panel", "conditions": "50 ppm in 3% alcohol in water", "description": "Two solutions of 3% alcohol in water were prepared. To one sample (sample A), 50 ppm of N-(2-hydroxyethyl) 5-hydroxyhexanoyl amide (as prepared in example 1) was added. The other sample was used as the reference sample. Both samples were tasted by a professional panel."}, "[4]": {"experiment": "Tasting of Odol mouthwater by a professional panel", "conditions": "50 ppm in Odol mouthwater", "description": "Commercially available Odol mouthwater (GlaxoSmithKline) was obtained from a local pharmacy and 4 solutions were prepared.\nTo a first sample (sample A), 50 ppm of N-(2-hydroxyethyl) 5-hydroxyhexanoyl amide (as prepared in example 1) was added. Samples A was tasted by a professional panel and compared with the mouthwater without added N-(2-hydroxyethyl) 5-hydroxyhexanoyl amide."}, "[5]": {"experiment": "Tasting of toothpaste by a professional panel", "conditions": "50 ppm in commercial toothpaste", "description": "Commercially available toothpaste was obtained from a local pharmacy and 4 samples of paste were prepared.\nTo a first sample (sample A), 50 ppm of N-(2-hydroxyethyl) 5-hydroxyhexanoyl amide (as prepared in example 1) was added and homogenized. Samples A was tasted by a professional panel and compared with the toothpaste without added N-(2-hydroxyethyl) 5-hydroxyhexanoyl amide."}}, "data": [{"substance": "N-(2-hydroxyethyl) 5-hydroxyhexanoyl amide", "values": [{"measurement": "cooling compared with the reference sample", "setting": "[1]", "result": "more intense cooling than the reference sample"}, {"measurement": "onset and location of the cooling effect", "setting": "[1]", "result": "its effect is immediate and through the whole oral cavity"}, {"measurement": "after-taste compared to the reference sample", "setting": "[2]", "result": "more a hot, tingling after-taste"}, {"measurement": "initial hotness compared to the reference sample", "setting": "[2]", "result": "initial hotness was increased"}, {"measurement": "alcohol impression compared to the reference sample", "setting": "[3]", "result": "alcohol-boosting effect"}, {"measurement": "ethanol water mixture that the sample tasted like", "setting": "[3]", "result": "5-6%"}, {"measurement": "cooling in the oral cavity", "setting": "[4]", "result": "more aggressive cooling in the whole oral cavity"}, {"measurement": "initial cooling and mouth-coating", "setting": "[4]", "result": "more initial cooling and more mouth-coating"}, {"measurement": "overall impact compared with mouthwater without the amide", "setting": "[4]", "result": "stronger overall impact"}, {"measurement": "cooling in the oral cavity", "setting": "[5]", "result": "more aggressive cooling in the whole oral cavity"}, {"measurement": "initial cooling and mouth-coating", "setting": "[5]", "result": "more initial cooling and more mouth-coating"}, {"measurement": "overall impact compared with the reference sample", "setting": "[5]", "result": "stronger overall impact"}]}]}
